Measurements from patent US7541367B2, “3-benzoimidazolyl-pyrazolopyridines useful in treating kinase disorders” (Janssen Pharmaceutica, N.V., priority 2005, dated 2009).

Experiments:
[1] = target: T1, CDK1 (Homo sapiens, UniProt P06493); assay: CDK-1 kinase screening assay (33P-ATP FlashPlate); format: biochemical; details: human CDK1 with cyclin B; 10 μM ATP; 1 hr at 30° C
T1 construct: purchased New England Biolabs, Beverly, Mass; 6020; host or cells: insect cells
Procedure: A kinase reaction mixture was prepared containing 50 mM Tris-HCl pH=8, 10 mM MgCl2, 0.1 mM […], 1 mM DTT, 10 μM ATP, 0.025 μM biotinylated histone-H1 peptide substrate and 0.2 μCuries per well ^33P-γ-ATP (2000-3000 Ci/mmol). 70 μL of the kinase reaction mixture was dispensed into the well of a streptavidin coated FlashPlate™ (Cat. # SMP103, NEN, Boston, Mass.).
Test compound stock in 100% DMSO (1 μL) was added to the wells resulting in a final concentration of 1% DMSO in the reaction with a 100 μL final reaction volume. Each enzyme was diluted in 50 mM Tris-HCl pH=8.0, 0.11% BSA and 30 μL was added to each well to initiate the reaction. The reaction was incubated for one hour at 30° C. At the end of the 1 hr incubation, the reaction was terminated by aspirating the mixture from the plate and washing the wells twice with PBS containing 100 mM EDTA. The biotinylated peptide substrate became immobilized on the Flashplate™ and the incorporation of ^33P-γ-ATP was measured by reading the plate on a scintillation counter. Inhibition of the enzymatic activity was measured by observing a reduced amount of ^33P-γ-ATP incorporated into the immobilized peptide.
The CDK1 enzyme was isolated from insect cells expressing both the human CDK1 catalytic subunit (Accession number NM_001786) and its positive regulatory subunit cyclin B (New England Biolabs, Beverly, Mass.; Cat. # 6020). The assay used 30 ng of the N-terminal biotinylated peptide biotin-[…]-amide (Cyclin dependent kinase 1) per well.
A maximum and minimum signal for the assay was determined on each plate. The percent inhibition of a test compound was calculated according to the formula: […]
For a series of test concentrations, the IC50 was derived by graphing percent inhibition against the log of the concentrations tested for a given compound with results shown in Table 1.
For compounds with multiple values, each value represents a separate assay result.

[2] = target: T2, VEGF-R2 (Rattus norvegicus, UniProt O08775); assay: VEGF-R2 kinase screening assay (33P-ATP FlashPlate); format: biochemical; details: rat VEGF-R2 kinase domain; 10 μM ATP; 1 hr at 30° C;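 also: Read-out is ³³P incorporation from ³³P-γ-ATP into biotinylated peptide substrate captured on streptavidin FlashPlate, counted by scintillation, 1% DMSO final, inhibition scaled between per-plate maximum and minimum signals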
T2 construct: polyhistidine (N)
T2 sequence (O08775 786-1343): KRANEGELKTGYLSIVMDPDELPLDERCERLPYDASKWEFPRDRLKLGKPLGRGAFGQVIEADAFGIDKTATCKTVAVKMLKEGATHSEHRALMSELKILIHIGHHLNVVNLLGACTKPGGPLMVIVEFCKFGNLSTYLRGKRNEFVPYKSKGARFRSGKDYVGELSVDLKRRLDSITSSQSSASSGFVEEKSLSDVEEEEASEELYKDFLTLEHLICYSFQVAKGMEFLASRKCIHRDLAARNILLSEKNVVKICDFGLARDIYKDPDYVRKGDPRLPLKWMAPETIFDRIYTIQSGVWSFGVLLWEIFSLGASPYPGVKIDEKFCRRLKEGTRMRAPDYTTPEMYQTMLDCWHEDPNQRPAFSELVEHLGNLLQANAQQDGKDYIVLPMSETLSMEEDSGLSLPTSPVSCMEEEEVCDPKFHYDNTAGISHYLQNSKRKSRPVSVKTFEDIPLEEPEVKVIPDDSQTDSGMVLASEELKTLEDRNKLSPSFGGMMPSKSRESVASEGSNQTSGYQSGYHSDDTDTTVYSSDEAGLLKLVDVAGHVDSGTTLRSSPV

[3] = target: T3, HER2 (Homo sapiens, UniProt P04626); assay: HER2 kinase screening assay (33P-ATP FlashPlate); format: biochemical; details: GST-HIS6 HER-2 aa 679 to 1255; 10 μM ATP; 1 hr at 30° C;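 also: Biotin-poly(GT) 4:1 peptide captured on streptavidin FlashPlate, 33P transfer from γ-ATP read by scintillation counting, lower incorporation means inhibition, 1% DMSO final, 100 µL reaction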
T3 construct: GST (Glutathione-S-Transferase) (N); HIS6 (N); thrombin cleavage site (N); purchased Proqinase, Freiburg, Germany
T3 sequence (P04626 679-1255): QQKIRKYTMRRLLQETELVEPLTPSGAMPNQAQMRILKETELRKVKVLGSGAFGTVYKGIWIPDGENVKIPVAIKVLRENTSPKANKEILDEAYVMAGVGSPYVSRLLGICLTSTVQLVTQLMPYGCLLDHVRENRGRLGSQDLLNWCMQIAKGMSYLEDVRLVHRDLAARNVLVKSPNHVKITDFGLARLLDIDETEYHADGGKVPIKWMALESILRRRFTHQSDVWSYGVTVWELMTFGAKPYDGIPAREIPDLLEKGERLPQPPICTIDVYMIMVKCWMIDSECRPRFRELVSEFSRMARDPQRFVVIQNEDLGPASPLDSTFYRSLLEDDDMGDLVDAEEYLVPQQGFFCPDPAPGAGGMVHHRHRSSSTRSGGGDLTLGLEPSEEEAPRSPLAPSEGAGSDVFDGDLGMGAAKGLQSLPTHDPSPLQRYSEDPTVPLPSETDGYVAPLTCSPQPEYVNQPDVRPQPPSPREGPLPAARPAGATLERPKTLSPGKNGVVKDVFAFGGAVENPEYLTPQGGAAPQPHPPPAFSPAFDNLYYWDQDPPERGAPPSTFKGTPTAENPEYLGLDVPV

[4] = target: T4, Aurora-A (Mus musculus, UniProt P97477); assay: Aurora-A kinase screening assay (33P-ATP FlashPlate); format: biochemical; details: 10 μM ATP, 1 hr at 30° C;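 also: His-tagged mouse Aurora-A phosphorylating a biotinylated peptide captured on streptavidin plates, read as 33P uptake by scintillation counting, 1% DMSO, inhibition scaled between per-plate maximum and minimum signals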
T4 construct: polyhistidine (N)
T4 sequence (P97477 1-395): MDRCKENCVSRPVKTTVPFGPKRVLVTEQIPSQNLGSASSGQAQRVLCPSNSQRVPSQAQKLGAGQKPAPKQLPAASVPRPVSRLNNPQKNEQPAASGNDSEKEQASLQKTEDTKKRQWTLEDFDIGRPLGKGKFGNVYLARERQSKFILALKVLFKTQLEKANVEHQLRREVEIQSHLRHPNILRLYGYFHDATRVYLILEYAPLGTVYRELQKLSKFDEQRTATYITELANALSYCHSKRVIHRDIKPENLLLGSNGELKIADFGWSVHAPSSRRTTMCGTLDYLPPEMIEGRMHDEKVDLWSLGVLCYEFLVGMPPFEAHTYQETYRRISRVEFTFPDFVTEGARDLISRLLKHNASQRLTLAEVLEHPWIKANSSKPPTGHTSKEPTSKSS

[5] = target: T5, RET (Homo sapiens, UniProt P07949); assay: RET kinase screening assay (33P-ATP FlashPlate); format: biochemical; details: human RET kinase domain; 10 μM ATP; 1 hr at 30° C;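 also: biotinylated peptide substrate captured on streptavidin FlashPlate, 33P phosphate transfer read by scintillation counting, 1% DMSO, lower incorporation means inhibition, percent relative to per-plate maximum and minimum signals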
T5 construct: polyhistidine (N)
T5 sequence (P07949 658-1114 limits assumed): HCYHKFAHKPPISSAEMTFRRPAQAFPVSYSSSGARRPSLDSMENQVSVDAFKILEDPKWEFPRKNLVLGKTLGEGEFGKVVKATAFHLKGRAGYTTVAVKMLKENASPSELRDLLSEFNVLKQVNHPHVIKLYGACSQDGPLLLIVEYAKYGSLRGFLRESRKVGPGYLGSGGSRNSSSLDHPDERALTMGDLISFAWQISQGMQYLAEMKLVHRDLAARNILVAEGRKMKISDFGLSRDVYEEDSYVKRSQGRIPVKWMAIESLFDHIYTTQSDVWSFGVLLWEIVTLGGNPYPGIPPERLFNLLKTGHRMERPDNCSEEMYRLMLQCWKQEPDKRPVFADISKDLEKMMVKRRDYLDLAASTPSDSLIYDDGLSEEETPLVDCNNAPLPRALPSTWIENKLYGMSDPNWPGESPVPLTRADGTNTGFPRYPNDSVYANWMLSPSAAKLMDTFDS

[6] = tested on: HeLa cervical adenocarcinoma; assay: Cell Proliferation Inhibition Assay (14C-thymidine incorporation), HeLa; format: cell-based; details: Homo sapiens, HeLa cells;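 also: test compound in DMSO added to cells seeded in scintillating 96-well plates, DMSO-only wells as control, uptake of methyl 14C-thymidine into new DNA counted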
[7] = tested on: A375 malignant melanoma; assay: Cell Proliferation Inhibition Assay (14C-thymidine incorporation), A375; format: cell-based; details: Homo sapiens, A-375, A375 cells;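 also: proliferation measured by radiolabelled thymidine uptake into new DNA, counted in scintillating 96-well plates, compound-treated wells compared with DMSO-only control wells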
[8] = tested on: HCT-116 colon carcinoma; assay: Cell Proliferation Inhibition Assay (14C-thymidine incorporation), HCT-116; format: cell-based; details: Homo sapiens;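 also: proliferation measured as methyl 14C-thymidine uptake into new DNA, counted in 96-well scintillating microplates, compared with DMSO-only control wells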

T1 sequence (P06493 whole entry): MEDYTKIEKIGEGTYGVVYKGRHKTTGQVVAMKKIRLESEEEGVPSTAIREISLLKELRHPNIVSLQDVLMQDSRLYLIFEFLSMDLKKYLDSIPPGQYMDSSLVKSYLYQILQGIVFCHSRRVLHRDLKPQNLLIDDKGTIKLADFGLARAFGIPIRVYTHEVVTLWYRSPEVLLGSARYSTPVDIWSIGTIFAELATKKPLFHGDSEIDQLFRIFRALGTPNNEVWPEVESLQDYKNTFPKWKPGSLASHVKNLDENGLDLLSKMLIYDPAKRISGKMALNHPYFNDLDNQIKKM
T1 sequence (P14635 whole entry partner): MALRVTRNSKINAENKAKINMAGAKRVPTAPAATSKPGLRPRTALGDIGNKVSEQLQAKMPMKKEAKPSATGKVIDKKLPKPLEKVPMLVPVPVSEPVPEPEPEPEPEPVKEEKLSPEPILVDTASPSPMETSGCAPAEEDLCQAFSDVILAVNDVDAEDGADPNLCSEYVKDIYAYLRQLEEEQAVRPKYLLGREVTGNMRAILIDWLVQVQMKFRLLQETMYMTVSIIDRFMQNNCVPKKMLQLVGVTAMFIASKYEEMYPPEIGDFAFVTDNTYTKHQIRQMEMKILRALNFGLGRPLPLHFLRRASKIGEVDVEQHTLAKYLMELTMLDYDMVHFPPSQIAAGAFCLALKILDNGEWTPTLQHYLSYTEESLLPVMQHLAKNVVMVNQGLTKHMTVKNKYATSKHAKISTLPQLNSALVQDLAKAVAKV

Structure (SMILES) | IC50 [1] | IC50 [2] | IC50 [3] | IC50 [4] | IC50 [5] | IC50 ([6]; HeLa) | IC50 [7] | IC50 ([8]; HCT-116, HCT-116 cells) | IC50 [6] | IC50 ([8]; HCT-116 cells)
CCOCCOCc1cccc2[nH]c(-c3n[nH]c4ncc(-c5cncc6ccccc56)cc34)nc12 [Cpd 16, 4-{3-[4-(2-ethoxy-ethoxymethyl)-1H-benzoimidazol-2-yl]-1H-pyrazolo[3,4-b]pyridin-5-yl}-isoquinoline] | 65.5 nM | 60.7 nM | > 100 µM | > 1000 nM | > 1 µM | 632 nM | 910 nM | 237 nM |  | 
O=C(O)c1cccc2[nH]c(-c3n[nH]c4ncc(-c5cncc6ccccc56)cc34)nc12 [Cpd 17, 2-(5-isoquinolin-4-yl-1H-pyrazolo[3,4-b]pyridin-3-yl)-1H-benzoimidazole-4-carboxylic acid] | 541 nM | > 10000 nM | > 100 µM | > 10000 nM | > 100 µM | > 10000 nM | > 10000 nM | > 10000 nM |  | 
O=C(c1cccc2[nH]c(-c3n[nH]c4ncc(-c5cncc6ccccc56)cc34)nc12)N1CCCC1 [Cpd 21, [2-(5-isoquinolin-4-yl-1H-pyrazolo[3,4-b]pyridin-3-yl)-1H-benzoimidazole-4-yl]-pyrrolidin-1-yl-methanone] | 162 nM | 2790 nM | > 10 µM | 4830 nM | > 10 µM | 804 nM | 472 nM | 899 nM |  | 
O=C(c1cccc2[nH]c(-c3n[nH]c4ncc(-c5cncc6ccccc56)cc34)nc12)N1CCCCC1 [Cpd 22, [2-(5-isoquinolin-4-yl-1H-pyrazolo[3,4-b]pyridin-3-yl)-1H-benzoimidazol-4-yl]-piperidin-1-yl-methanone] | 137 nM | 2120 nM | > 10 µM | 1990 nM | ~100 µM | 594 nM | 188 nM | 554 nM |  | 
CN1CCN(C(=O)c2cccc3[nH]c(-c4n[nH]c5ncc(-c6cncc7ccccc67)cc45)nc23)CC1 [Cpd 23, [2-(5-isoquinolin-4-yl-1H-pyrazolo[3,4-b]pyridin-3-yl)-1H-benzoimidazole-4-yl]-(4-methyl-piperazin-1-yl)-methanone] | 1630 nM | 6930 nM | > 10 µM | 10900 nM | > 100 µM | 6580 nM | 2760 nM | 3170 nM |  | 
O=C(c1cccc2[nH]c(-c3n[nH]c4ncc(-c5cncc6ccccc56)cc34)nc12)N1CCOCC1 [Cpd 24, [2-(5-isoquinolin-4-yl-1H-pyrazolo[3,4-b]pyridin-3-yl)-1H-benzoimidazole-4-yl]-morpholin-4-yl-methanone] | 42 nM | 4620 nM | > 10 µM | 2790 nM | ~100 µM | 460 nM | 490 nM | 743 nM |  | 
CN(C)CCNC(=O)c1cccc2[nH]c(-c3n[nH]c4ncc(-c5cncc6ccccc56)cc34)nc12 [Cpd 25, 2-(5-isoquinolin-4-yl-1H-pyrazolo[3,4-b]pyridin-3-yl)-1H-benzoimidazole-4-carboxylic acid (2-dimethylamino-ethyl)-amide] | 113 nM | ~100000 nM | > 10 µM | > 1000 nM | > 100 µM | 3800 nM | 2020 nM | 1220 nM |  | 
CN(C)CCN(C)C(=O)c1cccc2[nH]c(-c3n[nH]c4ncc(-c5cncc6ccccc56)cc34)nc12 [Cpd 26, 2-(5-isoquinolin-4-yl-1H-pyrazolo[3,4-b]pyridin-3-yl)-1H-benzoimidazole-4-carboxylic acid (2-dimethylamino-ethyl)-methyl-amide] | 244 nM | > 10000 nM | > 10 µM | 12100 nM | ~100 µM | 1160 nM | 1210 nM | 890 nM |  | 
O=C(NC1CCCC1)c1cccc2[nH]c(-c3n[nH]c4ncc(-c5cncc6ccccc56)cc34)nc12 [Cpd 27, 2-(5-isoquinolin-4-yl-1H-pyrazolo[3,4-b]pyridin-3-yl)-1H-benzoimidazole-4-carboxylic acid cyclopentylamide] | 31.7 nM | 1040 nM | > 10 µM | > 1000 nM | > 1 µM | 163 nM | 75.2 nM | 78.7 nM |  | 
CN1CCC(NC(=O)c2cccc3[nH]c(-c4n[nH]c5ncc(-c6cncc7ccccc67)cc45)nc23)CC1 [Cpd 28, 2-(5-isoquinolin-4-yl-1H-pyrazolo[3,4-b]pyridin-3-yl)-1H-benzoimidazole-4-carboxylic acid (1-methyl-piperidin-4-yl)-amide] | 724 nM | > 100000 nM | > 10 µM | > 10000 nM | > 100 µM | 26900 nM | 5620 nM | 4990 nM |  | 
O=C(NC1CCC(O)CC1)c1cccc2[nH]c(-c3n[nH]c4ncc(-c5cncc6ccccc56)cc34)nc12 (stereo not shown) [Cpd 29, 2-(5-isoquinolin-4-yl-1H-pyrazolo[3,4-b]pyridin-3-yl)-1H-benzoimidazole-4-carboxylic acid (4-hydroxy-cyclohexyl)-amide] | 11.6 nM | 232 nM | > 100 µM | ~1000 nM | ~1 µM | 205 nM | 69.7 nM | 255 nM |  | 
CC(C)OCc1cccc2[nH]c(-c3n[nH]c4ncc(-c5cncc6ccccc56)cc34)nc12 [Cpd 32, 4-[3-(4-isopropoxymethyl-1H-benzoimidazol-2-yl)-1H-pyrazolo[3,4-b]pyridin-5-yl]-isoquinoline] | 98.7 nM | ~100 nM | > 100 µM | > 1000 nM | > 100 µM |  | 905 nM |  | 2140 nM | 2880 nM
COCc1cccc2[nH]c(-c3n[nH]c4ncc(-c5ccc(S(N)(=O)=O)cc5)cc34)nc12 [Cpd 36, 4-[3-(4-methoxymethyl-1H-benzoimidazol-2-yl)-1H-pyrazolo[3,4-b]pyridin-5-yl]benzenesulfonamide] | 546 nM | 436 nM | > 100 µM | > 1000 nM | > 10 µM | 1430 nM | 212 nM | 43.4 nM |  | 
COCc1cccc2[nH]c(-c3n[nH]c4ncc(-c5cn(S(=O)(=O)c6ccccc6)c6ccccc56)cc34)nc12 [Cpd 38, 5-(1-benzenesulfonyl-1H-indol-3-yl)-3-(4-methoxymethyl-1H-benzoimidazol-2-yl)-1H-pyrazolo[3,4-b]pyridine] | > 10000 nM | > 1000 nM | > 100 µM | ~100000 nM | > 100 µM | 1900 nM | 56.8 nM | 39.4 nM |  | 
